Source: ChEMBL document CHEMBL4376864, “Binding Loop Substitutions in the Cyclic Peptide SFTI-1 Generate Potent and Selective Chymase Inhibitors” (J Med Chem, 2020)
Bridge positions count the residues as written; N and C are the ends. Square brackets hold non-standard residues; d marks the D form. Peptide text beside a SMILES is read from it. * marks the point of attachment. Phe(4-NO2) = N[C@@H](Cc1ccc([N+](=O)[O-])cc1)C(=O)O; Phe(4-tBu) = CC(C)(C)c1ccc(C[C@H](N)C(=O)O)cc1; Bip = N[C@@H](Cc1ccc(-c2ccccc2)cc1)C(=O)O; pNA = O=[N+]([O-])c1ccc(N*)cc1; Nle = CCCC[C@H](N)C(=O)O

Columns and labels:
Chymotrypsin = Chymotrypsin (Homo sapiens, UniProt Q99895+P17538+P40313+Q6GPI1); test: Inhibition of human chymotrypsin using Suc-AAPF-MCA as substrate at pH 8 and 298 K measured every 60 secs for 600 secs; assay type: protein assay
Cathepsin G = target: T1, Cathepsin G (Homo sapiens, UniProt P08311); test: Inhibition of human cathepsin G using Suc-AAPF-MCA as substrate at pH 7.2 and 298 K measured every 60 secs for 600 secs
T1 sequence (P08311 whole entry): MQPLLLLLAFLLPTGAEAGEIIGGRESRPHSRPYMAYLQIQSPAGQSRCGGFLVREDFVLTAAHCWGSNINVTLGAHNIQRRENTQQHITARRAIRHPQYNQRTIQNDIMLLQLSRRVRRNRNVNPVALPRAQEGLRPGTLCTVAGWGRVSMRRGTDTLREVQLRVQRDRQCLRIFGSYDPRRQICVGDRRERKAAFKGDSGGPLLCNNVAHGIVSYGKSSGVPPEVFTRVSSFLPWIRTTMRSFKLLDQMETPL

Chymase [1] = target: T2, Chymase (Homo sapiens, UniProt P23946); test: Substrate activity at recombinant human chymase expressed in Pichia pastoris X-33 cells assessed as Kcat by spectrophotometry analysis; assay type: ADME
T2 sequence (P23946 whole entry): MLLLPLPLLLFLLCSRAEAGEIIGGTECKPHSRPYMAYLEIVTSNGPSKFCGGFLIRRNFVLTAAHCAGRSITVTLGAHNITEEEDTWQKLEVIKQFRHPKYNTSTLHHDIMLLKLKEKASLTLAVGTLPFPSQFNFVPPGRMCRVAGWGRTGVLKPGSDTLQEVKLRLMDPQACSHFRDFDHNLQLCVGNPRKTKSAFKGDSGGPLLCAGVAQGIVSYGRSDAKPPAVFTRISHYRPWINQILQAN

Chymase [2] = target: T2, Chymase; test: Substrate activity at recombinant human chymase expressed in Pichia pastoris X-33 cells assessed as Km by spectrophotometry analysis; assay type: ADME
Chymase [3] = target: T2, Chymase; test: Substrate activity at recombinant human chymase expressed in Pichia pastoris X-33 cells assessed as ratio of Kcat/Km by spectrophotometry analysis; assay type: ADME
Chymase [4] = target: T2, Chymase; test: Inhibition of recombinant human chymase expressed in Pichia pastoris X-33 cells using NleTDY-pNA as substrate assessed as cleavage of pNA at pH 7.2 and 298 K by spectrophotometry analysis
Homo sapiens = organism: Homo sapiens; test: Selectivity index, ratio of Ki for human cathepsin G using Suc-AAPF-MCA as substrate to Ki for recombinant human chymase expressed in Pichia pastoris X-33 cells using NleTDY-pNA as substrate
[5] = Inhibition of human cationic trypsin using Boc-VPR-MCA as substrate at pH 8 and 298 K measured every 60 secs for 600 secs
Kallikrein-7 = Kallikrein-7 (Homo sapiens, UniProt P49862); test: Inhibition of recombinant human KLK7 expressed in Pichia pastoris X-33 using KHLY-pNA as substrate at pH 8 and 298 K measured every 60 secs for 600 secs
Prothrombin = Prothrombin (Homo sapiens, UniProt P00734); test: Inhibition of human thrombin using Boc-VPR-MCA as substrate at pH 8 and 298 K measured every 60 secs for 600 secs
Coagulation factor XII = target: T3, Coagulation factor XII (Homo sapiens, UniProt P00748); test: Inhibition of human coagulation factor 12a using Ac-QRFR-pNA as substrate at pH 8 and 298 K measured every 60 secs for 600 secs
T3 sequence (P00748 whole entry): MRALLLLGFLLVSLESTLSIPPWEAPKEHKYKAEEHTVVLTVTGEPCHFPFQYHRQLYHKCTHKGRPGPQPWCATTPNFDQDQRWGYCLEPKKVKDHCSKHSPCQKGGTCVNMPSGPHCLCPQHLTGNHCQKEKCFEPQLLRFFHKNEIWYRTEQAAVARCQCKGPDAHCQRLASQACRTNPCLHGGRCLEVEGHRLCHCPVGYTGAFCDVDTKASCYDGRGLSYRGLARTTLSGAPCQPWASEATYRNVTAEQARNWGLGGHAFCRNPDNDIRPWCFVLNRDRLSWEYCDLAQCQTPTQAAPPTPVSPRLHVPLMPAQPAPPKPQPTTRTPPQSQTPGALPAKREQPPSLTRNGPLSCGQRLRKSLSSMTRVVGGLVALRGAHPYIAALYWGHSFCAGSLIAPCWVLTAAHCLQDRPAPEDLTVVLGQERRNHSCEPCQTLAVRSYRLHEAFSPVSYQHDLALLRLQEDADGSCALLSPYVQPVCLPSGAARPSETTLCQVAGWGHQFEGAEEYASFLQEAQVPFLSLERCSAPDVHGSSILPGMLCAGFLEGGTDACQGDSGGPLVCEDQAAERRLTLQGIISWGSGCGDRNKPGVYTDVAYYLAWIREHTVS

Neutrophil elastase = target: T4, Neutrophil elastase (Homo sapiens, UniProt P08246); test: Inhibition of human neutrophil elastase using MeOSuc-AAPV-MCA as substrate at pH 7.2 and 298 K measured every 60 secs for 600 secs
T4 sequence (P08246 whole entry): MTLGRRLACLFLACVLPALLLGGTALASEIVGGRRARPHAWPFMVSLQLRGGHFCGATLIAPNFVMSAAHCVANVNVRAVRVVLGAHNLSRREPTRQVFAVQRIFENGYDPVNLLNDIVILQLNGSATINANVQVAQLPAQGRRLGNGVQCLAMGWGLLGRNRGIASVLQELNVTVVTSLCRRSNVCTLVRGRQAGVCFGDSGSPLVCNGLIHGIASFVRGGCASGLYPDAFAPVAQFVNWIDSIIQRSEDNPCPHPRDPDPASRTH

Chain of Kallikrein-7 (P49862 whole entry): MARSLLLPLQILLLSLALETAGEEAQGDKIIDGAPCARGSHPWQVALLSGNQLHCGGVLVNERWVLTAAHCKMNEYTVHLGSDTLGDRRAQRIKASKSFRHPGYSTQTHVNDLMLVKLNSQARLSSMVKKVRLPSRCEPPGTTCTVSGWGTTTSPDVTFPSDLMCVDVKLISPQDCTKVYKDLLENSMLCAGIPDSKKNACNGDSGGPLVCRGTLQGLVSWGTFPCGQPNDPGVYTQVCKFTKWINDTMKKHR

## CC[C@H](C)[C@@H]1NC(=O)[C@@H]2CCCN2C(=O)[C@@H]2CCCN2C(=O)[C@H](CCC(=O)O)NC(=O)[C@H](CO)NC(=O)[C@H](Cc2ccc(O)cc2)NC(=O)[C@H](CCC(N)=O)NC(=O)[C@@H]2CSSC[C@H](NC1=O)C(=O)N[C@@H](Cc1ccccc1)C(=O)N1CCC[C@H]1C(=O)N[C@@H](CC(=O)O)C(=O)NCC(=O)N[C@@H](CCCNC(=N)N)C(=O)N2 (cyclo(CFPDGRCQYSEPPI); disulfide 1-7)
Chymotrypsin
  Ki: 150 nM
Cathepsin G
  Ki: 0.26 nM

## C[C@@H](O)[C@H](NC(=O)[C@@H](N)Cc1ccccc1)C(=O)N[C@@H](CC(=O)O)C(=O)N[C@@H](Cc1ccc(O)cc1)C(=O)Nc1ccc([N+](=O)[O-])cc1 (H-FTDY-pNA)
Chymase [1]
  Kcat: 14 s⁻¹
Chymase [2]
  Km: 370 µM
Chymase [3]
  Kcat/Km: 3.8 ×10⁴ /M/s

## CC[C@H](C)[C@@H]1NC(=O)[C@@H]2CCCN2C(=O)[C@@H]2CCCN2C(=O)[C@H](CCC(=O)O)NC(=O)[C@H](CO)NC(=O)[C@H](Cc2ccc(O)cc2)NC(=O)[C@H](C)NC(=O)[C@@H]2CSSC[C@H](NC1=O)C(=O)N[C@@H](Cc1ccccc1)C(=O)N1CCC[C@H]1C(=O)N[C@@H](CC(=O)O)C(=O)NCC(=O)N[C@@H](Cc1ccccc1)C(=O)N2 (cyclo(AYSEPPICFPDGFC); disulfide 8-14)
Chymotrypsin
  Ki: 0.42 nM
Cathepsin G
  Ki: < 0.1 nM

## CC[C@H](C)[C@@H]1NC(=O)[C@@H]2CCCN2C(=O)[C@@H]2CCCN2C(=O)[C@H]([C@@H](C)CC)NC(=O)[C@H](CO)NC(=O)[C@H](Cc2ccc(O)cc2)NC(=O)[C@H](CC(=O)O)NC(=O)[C@@H]2CSSC[C@H](NC1=O)C(=O)N[C@@H](Cc1ccccc1)C(=O)N1CCC[C@H]1C(=O)N[C@@H](CC(=O)O)C(=O)NCC(=O)N[C@@H](Cc1ccccc1)C(=O)N2 (cyclo(CDYSIPPICFPDGF); disulfide 1-9)
Chymase [4]
  IC50: > 5000 nM

## C[C@@H](O)[C@H](NC(=O)[C@@H](NC(=O)[C@@H](N)CCCNC(=N)N)[C@@H](C)O)C(=O)N[C@@H](Cc1ccc(O)cc1)C(=O)Nc1ccc([N+](=O)[O-])cc1 (H-RTTY-pNA)
Chymase [1]
  Kcat: 18 s⁻¹
Chymase [2]
  Km: 530 µM
Chymase [3]
  Kcat/Km: 3.4 ×10⁴ /M/s

## C[C@@H](O)[C@@H]1NC(=O)[C@@H]2CSSC[C@H](NC(=O)[C@H](CCC(=O)O)NC(=O)[C@@H]3CCCN3C(=O)[C@@H]3CCCN3C(=O)[C@H](CCC(=O)O)NC(=O)[C@H](CO)NC(=O)[C@H](Cc3ccc(O)cc3)NC1=O)C(=O)N[C@@H](Cc1ccccc1)C(=O)N1CCC[C@H]1C(=O)N[C@@H](CC(=O)O)C(=O)NCC(=O)N[C@@H](CCCNC(=N)N)C(=O)N2 (cyclo(CFPDGRCTYSEPPE); disulfide 1-7)
Chymotrypsin
  Ki: 11 nM
Cathepsin G
  Ki: 14 nM

## CC[C@H](C)[C@@H]1NC(=O)[C@@H]2CCCN2C(=O)[C@@H]2CCCN2C(=O)[C@H]([C@@H](C)CC)NC(=O)[C@H](CO)NC(=O)[C@H](CCCCN)NC(=O)[C@H]([C@@H](C)O)NC(=O)[C@@H]2CSSC[C@H](NC1=O)C(=O)N[C@@H](Cc1ccccc1)C(=O)N1CCC[C@H]1C(=O)N[C@@H](CC(=O)O)C(=O)NCC(=O)N[C@@H](CCCNC(=N)N)C(=O)N2
Chymase [4]
  IC50: > 5000 nM

## C[C@@H](O)[C@H](NC(=O)[C@H](CCC(=O)O)NC(=O)[C@@H](N)CCCNC(=N)N)C(=O)N[C@@H](Cc1ccc(O)cc1)C(=O)Nc1ccc([N+](=O)[O-])cc1 (H-RETY-pNA)
Chymase [1]
  Kcat: 13 s⁻¹
Chymase [2]
  Km: 410 µM
Chymase [3]
  Kcat/Km: 3.2 ×10⁴ /M/s

## CC(C)(C)c1ccc(C[C@@H]2NC(=O)[C@H](CCC(N)=O)NC(=O)[C@@H]3CSSC[C@H](NC(=O)[C@H](CCC(=O)O)NC(=O)[C@@H]4CCCN4C(=O)[C@@H]4CCCN4C(=O)[C@H](CCC(=O)O)NC(=O)[C@H](CO)NC2=O)C(=O)N[C@@H](Cc2ccccc2)C(=O)N2CCC[C@H]2C(=O)N[C@@H](CC(=O)O)C(=O)NCC(=O)N[C@@H](CCCNC(=N)N)C(=O)N3)cc1 (cyclo(CFPDGRCQ[Phe(4-tBu)]SEPPE); disulfide 1-7)
Chymase [4]
  IC50: > 10000 nM

## CCCC[C@H](N)C(=O)N[C@H](C(=O)N[C@@H](CC(=O)O)C(=O)N[C@@H](Cc1ccc(O)cc1)C(=O)Nc1ccc([N+](=O)[O-])cc1)[C@@H](C)O (H-[Nle]TDY-pNA)
Chymase [1]
  Kcat: 22 s⁻¹
Chymase [2]
  Km: 550 µM
Chymase [3]
  Kcat/Km: 4 ×10⁴ /M/s

## CC[C@H](C)[C@@H]1NC(=O)[C@@H]2CCCN2C(=O)[C@@H]2CCCN2C(=O)[C@H](CCC(=O)O)NC(=O)[C@H](CO)NC(=O)[C@H](Cc2ccc(O)cc2)NC(=O)[C@H]([C@@H](C)O)NC(=O)[C@@H]2CSSC[C@H](NC1=O)C(=O)N[C@@H](Cc1ccccc1)C(=O)N1CCC[C@H]1C(=O)N[C@@H](CC(=O)O)C(=O)NCC(=O)N[C@@H](CCCNC(=N)N)C(=O)N2 (cyclo(CFPDGRCTYSEPPI); disulfide 1-7)
Chymotrypsin
  Ki: 0.88 nM
Cathepsin G
  Ki: 8.2 nM

## CCCC[C@@H]1NC(=O)CNC(=O)[C@H](CC(=O)O)NC(=O)[C@@H]2CCCN2C(=O)[C@H](Cc2ccccc2)NC(=O)[C@@H]2CSSC[C@H](NC1=O)C(=O)N[C@@H](CC(=O)O)C(=O)N[C@@H](Cc1ccc(O)cc1)C(=O)N[C@@H](CO)C(=O)N[C@@H]([C@@H](C)CC)C(=O)N1CCC[C@H]1C(=O)N1CCC[C@H]1C(=O)N[C@@H]([C@@H](C)CC)C(=O)N2 (cyclo(CDYSIPPICFPDG[Nle]); disulfide 1-9)
Chymase [4]
  IC50: > 5000 nM

## N=C(N)NCCC[C@@H]1NC(=O)CNC(=O)[C@H](CC(=O)O)NC(=O)[C@@H]2CCCN2C(=O)[C@H](Cc2ccccc2)NC(=O)[C@@H]2CSSC[C@H](NC1=O)C(=O)N[C@@H](CCC(N)=O)C(=O)N[C@@H](Cc1ccc([N+](=O)[O-])cc1)C(=O)N[C@@H](CO)C(=O)N[C@@H](CCC(=O)O)C(=O)N1CCC[C@H]1C(=O)N1CCC[C@H]1C(=O)N[C@@H](CCC(=O)O)C(=O)N2 (cyclo(CFPDGRCQ[Phe(4-NO2)]SEPPE); disulfide 1-7)
Homo sapiens
  Ratio Ki: 96
Chymotrypsin
  Ki: 920 nM
Cathepsin G
  Ki: 5200 nM
[5]
  IC50: > 10000 nM
Kallikrein-7
  IC50: > 10000 nM
Prothrombin
  IC50: > 10000 nM
Coagulation factor XII
  IC50: > 10000 nM
Neutrophil elastase
  IC50: > 10000 nM
Chymase [4]
  Ki: 54 nM

## CC[C@H](C)[C@@H]1NC(=O)[C@@H]2CCCN2C(=O)[C@@H]2CCCN2C(=O)[C@H](Cc2ccc(-c3ccccc3)cc2)NC(=O)[C@H](CO)NC(=O)[C@H](Cc2ccc(O)cc2)NC(=O)[C@H](C)NC(=O)[C@@H]2CSSC[C@H](NC1=O)C(=O)N[C@@H](Cc1ccccc1)C(=O)N1CCC[C@H]1C(=O)N[C@@H](CC(=O)O)C(=O)NCC(=O)N[C@@H](Cc1ccccc1)C(=O)N2 (cyclo(AYS[Bip]PPICFPDGFC); disulfide 8-14)
Chymotrypsin
  Ki: 1.5 nM
Cathepsin G
  Ki: 7.4 nM
